Source: patent publication US10759796B2, “CXCR4 inhibitors and uses thereof” (X4 Pharmaceuticals, Inc., priority 2016, dated 2020)

Legend:
[1] = biological target: CXCR-4 transfected U87 cell line (U87.CXCR4) (Homo sapiens (Human), UniProt P61073); test: Intracellular CXCL-12-induced calcium mobilization assay (FLIPR); format: cell-based; details: U87.CXCR4 cells, CXCL-12 25-50 ng/mL; read-out: IC50 CXCL-12 Ca2+ flux U87.CXCR4+
Procedure: Example 28: REGA Screening Assay
Intracellular CXCL-12-Induced Calcium Mobilization Assay
Intracellular calcium mobilization induced by chemokines or chemokine-derived peptides were evaluated using a calcium responsive fluorescent probe and a FLIPR system. The CXCR-4 transfected U87 cell line (U87.CXCR4) cells were seeded in gelatine-coated black-wall 96-well plates at 20,000 cells per well and incubated for 12 hours. Cells were then loaded with the fluorescent calcium probe Fluo-2 acetoxymethyl at 4 μM final concentration in assay buffer (Hanks' balanced salt solution with 20 mM HEPES buffer and 0.2% bovine serum albumin, pH 7.4) for 45 min at 37° C. The intracellular calcium mobilization induced by the CXCL-12 (25-50 ng/mL) was then measured at 37° C. by monitoring the fluorescence as a function of time in all the wells simultaneously using a fluorometric imaging plate reader (FLIPR Tetra, Molecular Devices).

[2] = biological target: Jurkat cells expressing CXCR4 (Homo sapiens (Human), UniProt P61073); test: Chemokine (CXCL12-AF647) binding inhibition assay; details: CXCL12-AF647 25 ng/mL, read-out: IC50 CXCL-12 binding Jurkat
Procedure: Chemokine (CXCL12-AF647) Binding Inhibition Assay
Jurkat cells expressing CXCR4 were washed once with assay buffer (Hanks' balanced salt solution with 20 mM HEPES buffer and 0.2% bovine serum albumin, pH 7.4) and then incubated for 15 min at room temperature with the test compounds diluted in assay buffer at dose-dependent concentrations. Subsequently, CXCL12-AF647 (25 ng/mL) was added to the compound-incubated cells. The cells were incubated for 30 min at room temperature. Thereafter, the cells were washed twice in assay buffer, fixed in 1% paraformaldehyde in PBS, and analyzed on the FL4 channel of a FACSCalibur flow cytometer equipped with a 635-nm red diode laser (Becton Dickinson, San Jose, Calif., USA).
The percentages of inhibition of CXCL12-AF647 binding were calculated according to the formula: [1−((MFI−MFINC)/(MFIPC−MFINC))]×100 where MFI is the mean fluorescence intensity of the cells incubated with CXCL12-AF647 in the presence of the inhibitor, MFINC is the mean fluorescence intensity measured in the negative control (i.e., autofluorescence of unlabeled cells), and MFIPC is the mean fluorescence intensity of the positive control (i.e., cells exposed to CXCL12-AF647 alone).

[3] = in vitro; details: human, Caco-2, pH 7.4
Procedure: Example 28: Caco-2 Permeability Assay
The goal of this assay was to evaluate the intestinal absorption potential of drug candidates using Caco-2 cell lines.
1. Prewarm Prewarm HBSS Buffer in 37° C. water bath
2. Sonicate Take compounds from −20° C., sonicate for a few minutes (no less than 1 minute)
HBSS buffer with 0.3% DMSO and 5 μM LY: add 150 μL DMSO and 50 μL LY (5 mM) into 50 ml HBSS buffer (pH 7.4).
HBSS buffer with 0.1% DMSO and 5 μM LY: add 50 μL DMSO and 50 μL LY (5 mM) into 50 mL HBSS buffer (pH 7.4).
HBSS buffer with 0.3% DMSO: add 150 μL DMSO into 50 ml HBSS buffer (pH 7.4).
HBSS buffer with 0.1% DMSO: add 50 μL DMSO into 50 ml HBSS buffer (pH 7.4).
Receiver Solution Buffer:
Prepare HBSS buffer with 0.4% DMSO: add 200 μL DMSO into 50 ml HBSS buffer (pH 7.4).
Prepare HBSS buffer with 0.4% DMSO and 5 μM LY: add 200 μL DMSO and 50 μL LY (5 mM) into 50 ml HBSS buffer (pH 7.4).
4. Measure TEER Take cell culture plate out of incubator, wash the cell monolayers with HBSS buffer, and then measure TEER values at Rm temperature. 5. Centrifuge Centrifuge the compound solution (from step 3) at 4000 rpm for 5 min before loading to donor chambers. 6. Dosing Add solution based on the volumes listed in the following table (make sure to take extra 100 μL of donor sample for TO as Backup).
7. Apical LYT0 Samples To determine LY concentration in the apical chember, take 100 μL sample from apical chambers into an opaque plate for LYT0. 8. Prewarm Prewarm apical and basolateral plates at 37° C. for about 5 min, then begin transport by placing the apical plate onto basolateral plate. 9. Incubation Keep the plates in incubator at 37° C. for 90 min. 10. Standard Curve Preparation
For 300 μM compound solution, add 6 μL of compound stock solution into 192 μL of MeOH/H2O (1:1).
Prepare Working Solution in MeOH/H2O (1:1)
3 μL (20×)+57 μL of 0.4% DMSO HBSS+60 μL ACN with IS (Osalmid or Imipramine) - - - 120 μL (1×)
11. Transport Termination Separate the apical plate from the basolateral plate after 90-min incubation.
12. Measure LY Take 100 μL samples from basolateral plate to an opaque plate as LYT90.
13. Measure LY concentrations for LYT0 and LYT90 by Fluorometer (at excitation of 485 nm/emission of 535 nm).
Study details: Test concentration 10 μM
Test systems: Caco-2/HBSS solution
Incubation conditions: 0, 90 min at 37° C.
Sample size: Duplicates (n=2)
Bioanalytical method: LC-MS/MS
For Millicell-24 Cell Culture Plates: surface area of the membrane=0.7 cm^2, VA=0.8 mL (A-to-B) or 0.4 mL (B-to-A)
1. Papp values were calculated based on calculated concentrations.
The compound numbers correspond to the compound numbers in Table 1.

CXCR-4 transfected U87 cell line (U87.CXCR4), sequence (P61073 whole entry): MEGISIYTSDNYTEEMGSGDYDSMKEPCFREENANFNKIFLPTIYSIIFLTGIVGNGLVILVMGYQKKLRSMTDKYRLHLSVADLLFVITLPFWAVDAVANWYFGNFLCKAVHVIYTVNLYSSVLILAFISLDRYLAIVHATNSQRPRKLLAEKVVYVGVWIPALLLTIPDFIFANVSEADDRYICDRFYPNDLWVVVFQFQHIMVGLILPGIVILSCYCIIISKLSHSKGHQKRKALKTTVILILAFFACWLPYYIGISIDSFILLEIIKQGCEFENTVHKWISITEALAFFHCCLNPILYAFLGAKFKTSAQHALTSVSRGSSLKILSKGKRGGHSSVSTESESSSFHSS
Jurkat cells expressing CXCR4, sequence (P61073 whole entry): as above

Compound | IC50 [1] [nM] | IC50 [2] [nM] | Papp A→B at 90 min, 10 μM [3] [×10⁻⁶ cm/s] | Papp B→A at 90 min, 10 μM [3] [×10⁻⁶ cm/s] | efflux ratio at 90 min, 10 μM [3]
Cc1cccnc1[C@@H]1CCC[C@H](c2cn3c(N4CCN(CC(F)(F)F)CC4)cccc3n2)N1C [Compound I-14] | 100 to 1000 | 100 to 1000 | 10 to 30 | 10 to 30 | 0.1 to 10
Cc1cccnc1[C@@H]1CCC[C@H](c2cn3c(N4CCN(C(C)C)CC4)cccc3n2)N1C [Compound I-15] | 0.01 to 100 | 0.01 to 100 | 0.1 to 10 | 10 to 30 | 0.1 to 10
Cc1cccnc1[C@@H]1CCC[C@H](c2cn3ccccc3n2)N1Cc1ccccc1-n1cccn1 [Compound I-16] | 0.01 to 100 | 0.01 to 100 | 10 to 30 | 10 to 30 | 0.1 to 10
Cc1cccnc1[C@@H]1CCC[C@H](c2nc3cccc(N4CCN(C)CC4)n3c2Br)N1C [Compound I-17] | 0.01 to 100 | 0.01 to 100 | 0.1 to 10 | 0.1 to 10 | 0.1 to 10
CCOCc1c([C@H]2CCC[C@@H](c3ncccc3C)N2C)nc2cccc(N3CCN(C)CC3)n12 [Compound I-21] | 0.01 to 100 | 0.01 to 100 | 0.1 to 10 | 10 to 30 | 0.1 to 10
Cc1cccnc1[C@@H]1CCC[C@H](c2nc3ccccn3c2CCCN2CCOCC2)N1C [Compound I-29] | 100 to 1000 | 0.01 to 100 | 0.1 to 10 | 10 to 30 | 0.1 to 10
CCN1[C@@H](c2cn3c(N4CCN(C(C)C)CC4)cccc3n2)CCC[C@H]1c1ncccc1C [Compound I-37] | 0.01 to 100 | 0.01 to 100 | 0.1 to 10 | 10 to 30 | 0.1 to 10
Cc1cccnc1[C@@H]1CCC[C@H](c2nc3ccccn3c2CN2CCN(C)CC2)N1C [Compound I-38] | 0.01 to 100 | 0.01 to 100 | 0.1 to 10 | > 30 | > 30
Cc1cccnc1[C@@H]1CCC[C@H](c2nc3ccccn3c2CN2CCN(C(C)C)CC2)N1C [Compound I-39] | 100 to 1000 | 0.01 to 100 | 0.1 to 10 | > 30 | 10 to 30
CCN1CCN(Cc2c([C@H]3CCC[C@@H](c4ncccc4C)N3C)nc3ccccn23)CC1 [Compound I-40] | 0.01 to 100 | 0.01 to 100 | 0.1 to 10 | > 30 | > 30
CCN1[C@@H](c2nc3cccc(N4CCN(C(C)C)CC4)n3c2Br)CCC[C@H]1c1ncccc1C [Compound I-45] | ≥ 1000 | 100 to 1000 | 0.1 to 10 | 0.1 to 10 | 0.1 to 10

Other lines, results leading:

IC50 [1] [nM] | IC50 [2] [nM] | Papp A→B at 90 min, 10 μM [3] [×10⁻⁶ cm/s] | Papp B→A at 90 min, 10 μM [3] [×10⁻⁶ cm/s] | efflux ratio at 90 min, 10 μM [3] | Compound
0.01 to 100 | 0.01 to 100 | 0.1 to 10 | 0.1 to 10 | 0.1 to 10 | CCN1[C@@H](c2nc3cccc(N4CCN(C)CC4)n3c2Br)CCC[C@H]1c1ncccc1C [Compound I-46]
0.01 to 100 | 0.01 to 100 | 0.1 to 10 | 0.1 to 10 | 0.1 to 10 | Cc1cccnc1[C@@H]1CCC[C@H](c2nc3cccc(N4CCN(C)CC4)n3c2Br)N1C(C)C [Compound I-47]
100 to 1000 | 0.01 to 100 | 0.1 to 10 | 10 to 30 | 0.1 to 10 | Cc1cccnc1[C@@H]1CCC[C@H](c2nc3cccc(N4CCN(C)CC4)n3c2COC(C)C)N1C [Compound I-48]
0.01 to 100 | 0.01 to 100 | 0.1 to 10 | 10 to 30 | 0.1 to 10 | Cc1cccnc1[C@@H]1CCC[C@H](c2cn3c(N4CCN(C)CC4)cccc3n2)N1CCCO [Compound I-49]
0.01 to 100 | 0.01 to 100 | 0.1 to 10 | 10 to 30 | 10 to 30 | Cc1cccnc1[C@@H]1CCC[C@H](c2nc3cccc(N4CCN(C(C)C)CC4)n3c2CO)N1C [Compound I-50]
100 to 1000 | 0.01 to 100 | 0.1 to 10 | 10 to 30 | 0.1 to 10 | CC(C)c1cccnc1[C@@H]1CCC[C@H](c2cn3c(N4CCN(C)CC4)cccc3n2)N1C [Compound I-51]
≥ 1000 | 100 to 1000 | 0.1 to 10 | > 30 | 10 to 30 | Cc1cccnc1[C@@H]1CCC[C@H](c2cn3c(N4CCN(C5COC5)CC4)cccc3n2)N1C [Compound I-52]
100 to 1000 | 0.01 to 100 | 0.1 to 10 | 10 to 30 | 0.1 to 10 | Cc1cccnc1[C@@H]1CCC[C@H](c2cn3c(N4CCN(C5CCOCC5)CC4)cccc3n2)N1C [Compound I-53]
0.01 to 100 | 0.01 to 100 | 0.1 to 10 | 0.1 to 10 | > 30 | Cc1cccnc1[C@@H]1CCC[C@H](c2nc3ccccn3c2[C@@H](O)C2CCN(C)CC2)N1C [Compound I-54]
≥ 1000 | 0.01 to 100 | 0.1 to 10 | 0.1 to 10 | 0.1 to 10 | Cc1cccnc1[C@@H]1CCC[C@H](c2nc3ccccn3c2[C@H](O)C2CCN(C)CC2)N1C [Compound I-55]
0.01 to 100 | 0.01 to 100 | 0.1 to 10 | 10 to 30 | 0.1 to 10 | CCOCc1c([C@H]2CCC[C@@H](c3ncccc3C)N2C)nc2cccc(N3CCN(CC)CC3)n12 [Compound I-56]
0.01 to 100 | 0.01 to 100 | 0.1 to 10 | 10 to 30 | 0.1 to 10 | CCOCc1c([C@H]2CCC[C@@H](c3ncccc3C)N2C)nc2cccc(N3CCN(C(C)C)CC3)n12 [Compound I-57]
≥ 1000 | 100 to 1000 | 10 to 30 | 10 to 30 | 0.1 to 10 | CCOCc1c([C@H]2CCC[C@@H](c3ncccc3C)N2C)nc2cccc(N3CCN(C4CC4)CC3)n12 [Compound I-58]
